According to patent publication US7129215B2, “Tripeptide and tetrapeptide thioethers” (Telik, Inc., priority 2005, dated 2006):
Like-named read-outs stand apart in the source and are kept apart here. *1 amine or outer side, *2 acyl side, *3 side chain or, on linkers, in order; H or OH if unused. Where a SMILES comes first, the peptide text is derived from it. [ ]: non-standard residue; d: D form. The star is where a group is joined. γGlu = O=C(O)[C@H](CCC(=O)[*:2])N[*:1]; dPhg = N[C@@H](C(=O)O)c1ccccc1; Bn = c1ccc(C*)cc1

Columns and labels:
[1] = target: T1, Recombinant human GST M1-1 (Homo sapiens, UniProt P09488); assay: Inhibition of glutathione S-transferase isoenzyme GST M1-1; format: biochemical
T1 construct: purchased EMD Biosciences, Inc., San Diego, Calif., U.S.A
T1 sequence (P09488 2-218 limits assumed): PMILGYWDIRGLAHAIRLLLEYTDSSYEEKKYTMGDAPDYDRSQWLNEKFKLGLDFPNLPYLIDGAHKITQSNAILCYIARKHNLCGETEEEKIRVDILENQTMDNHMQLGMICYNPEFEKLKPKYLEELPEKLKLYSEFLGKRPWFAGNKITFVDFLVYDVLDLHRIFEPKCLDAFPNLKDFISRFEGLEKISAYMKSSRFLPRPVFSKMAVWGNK
Method: (§1) Inhibition of glutathione S-transferase isoenzymes.
(§2) For each assay, the test compound and GSH were added to the isoenzyme. Immediately after the addition of CDNB solution to the isoenzyme/compound/GSH solution, the absorbance at 340 nm was recorded continuously for 5 min on a SpectraMax plate reader (Molecular Devices, Inc., Sunnyvale, Calif., U.S.A.). The GST inhibitory activity of each compound was calculated from the slopes of the absorbance/time curves at the various concentrations of test compound. All assays were conducted in duplicate wells, with DMSO control, with the final DMSO concentration maintained at 2%.

[2] = test system: HL-60 human leukemia cell line; assay: Cytotoxicity in HL-60 cells (CellTiter-Glo); conditions: read-out: HL-60 CC50 (concentration that causes 50% growth inhibition); diethyl ester compounds (1B to 12B, TLK199); 72 hours
Method: Cytotoxicity in HL-60 cells.
The cells were then incubated for 72 hours (approximately three doubling times). The cells were then harvested by centrifugation (1200 rpm for 5 min at 20° C.), and 100 μL of the culture supernatant was removed and replaced by the same volume of the CellTiter-Glo reagent. After incubation for 10 minutes at room temperature with constant mixing, the plate was read with a luminometer, with the number of live cells being proportional to the observed luminescence. All assays were conducted in triplicate wells, with DMSO solvent control.

[3] = target: T2, Recombinant human GST A1-1 (Homo sapiens, UniProt P08263); assay: Inhibition of glutathione S-transferase isoenzyme GST A1-1; format: biochemical
T2 construct: purchased EMD Biosciences, Inc., San Diego, Calif., U.S.A
T2 sequence (P08263 1-222): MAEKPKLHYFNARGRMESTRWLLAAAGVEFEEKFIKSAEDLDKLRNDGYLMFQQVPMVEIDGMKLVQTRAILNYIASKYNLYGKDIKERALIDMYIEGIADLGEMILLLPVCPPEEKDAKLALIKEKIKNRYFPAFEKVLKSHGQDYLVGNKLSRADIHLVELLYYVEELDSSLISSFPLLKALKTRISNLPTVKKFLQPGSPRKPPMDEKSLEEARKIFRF
Method: as §1, §2

[4] = target: T3, Recombinant human GST P1-1 (Homo sapiens, UniProt P09211); assay: Inhibition of glutathione S-transferase isoenzyme GST P1-1; format: biochemical
T3 construct: purchased EMD Biosciences, Inc., San Diego, Calif., U.S.A
Method: as §1, §2

[5] = Phase II, MDS, interim results; cited from earlier work
[6] = test system: HL-60 cells; assay: Enhancement of differentiation of HL-60 cells (CD11b expression, flow cytometry); format: cell-based, human; conditions: diethyl ester compounds; 24 hours; CD11b expression vs DMSO control
Method: Some of the diethyl ester compounds of this invention were also tested for their ability to enhance the differentiation of HL-60 cells. This illustrates the beneficial effect of the compounds of this invention in stimulating differentiation of the HL-60 human leukemia cell line in vitro. […] The cells were harvested by centrifugation (1250 rpm for 5 min at 20° C.) and washed with 2 mL ice-cold phosphate-buffered saline (PBS) containing 2% FBS, then stained with 10 μL phycoerythrin-conjugated anti-CD11b antibody or 10 μL phycoerythrin-conjugated isotype control antibody. After standing for 30 min on ice, the cells were re-suspended in 2 mL ice-cold PBS containing 2% FBS. The cells were harvested by centrifugation (1250 rpm for 5 min at 20° C.) and resuspended in 0.4 mL PBS containing 2% FBS. The specific cell surface expression of CD11b, a marker for granulocytes and monocytes, was detected by flow cytometry using a FACSCalibur analyzer (BD Biosciences). All assays were conducted in triplicate, with DMSO control. The extent of differentiation was expressed as a multiple of the signal from the DMSO control.

[7] = test system: hematopoietic progenitor cells; conditions: normal human peripheral blood; cited from earlier work
[8] = both in vitro and in vivo; cited from earlier work
[9] = test system: HL-60 cells; conditions: background statement; cited from earlier work
[10] = normal animals and animals depleted by cisplatin or fluorouracil; cited from earlier work
[11] = target: T4, GSTπ (Homo sapiens, UniProt P09211); assay: GSTπ immunoprecipitation assay in HL60 cells; format: cell-based; conditions: HL-60, read-out: GSTπ inhibition, %
T4 construct: endogenous in cells; host or cells: HL-60 (human promyeloid myelocytic leukemia)
Method: In vitro example 3. GSTπ immunoprecipitation assay. This example illustrates the beneficial effects of compounds of this invention in causing GSTπ immunoprecipitation. […] HL60 cells were seeded at 6×10^5 cells/mL in 20 mL RPMI-1640 medium supplemented with 10% fetal bovine serum, 1 mM glutamine and 20 μM gentamycin in a T75 flask and cultured overnight in 5% CO2 atmosphere at 37° C. […] Following the treatment, the cells were collected by centrifugation and washed twice with phosphate-buffered saline. The cell pellets were resuspended in 1 mL lysis buffer (50 mM Tris, pH 8.0, 120 mM NaCl, 0.5% NP-40 surfactant, 100 mM NaF; to which protease and phosphatase inhibitors (Roche Diagnostics, Indianapolis, Ind., U.S.A.) had been added before use) and incubated with gentle agitation for 30 minutes at 4° C. The cell lysates were cleared by centrifugation at 13,000 rpm for 10 minutes to remove cell debris. […] Following overnight incubation at 4° C., 30 μL of Protein A/G agarose beads (Pierce, Rockford, Ill.) were added to the mixture and incubated for 1 hour at 4° C. […] GSTπ protein bands were visualized and band intensity quantified on Odyssey infrared scanner (Li-Cor, Lincoln, Nebr., U.S.A.). The band intensity from a compound treatment was compared to its corresponding DMSO control and expressed as percent inhibition.

[12] = target: T3, Recombinant human GST P1-1; conditions: background statement; read-out: GST P1-1 IC50 (related art statement); cited from earlier work

T3 sequence (P09211 2-210 limits assumed): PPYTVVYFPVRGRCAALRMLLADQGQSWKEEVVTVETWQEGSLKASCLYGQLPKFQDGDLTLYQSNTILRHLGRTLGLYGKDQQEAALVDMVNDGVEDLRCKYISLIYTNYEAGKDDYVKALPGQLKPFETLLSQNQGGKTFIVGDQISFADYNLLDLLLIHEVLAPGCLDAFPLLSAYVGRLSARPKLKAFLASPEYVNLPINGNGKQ
T4 sequence (P09211 2-210 limits assumed): as above

**Q.** Which IC50 ([1]; diacid compounds, GSH and CDNB at 2×Km, pH 6.5, read-out: GST M1-1 IC50) does the source give for `N[C@@H](CCC(=O)N[C@@H](CSCc1ccc(Cl)cc1)C(=O)N[C@@H](C(=O)O)c1ccccc1)C(=O)O` [TLK137] here?
**A.** The IC50 was 6.5 µM.

**Q.** What about the CC50 [2] of the same compound?
**A.** The CC50 was 10 µM.

**Q.** What about the IC50 ([3]; diacid compounds, GSH and CDNB at 2×Km, pH 6.5, read-out: GST A1-1 IC50) of the same compound?
**A.** Its IC50 is 10 µM.

**Q.** What about the IC50 ([4]; diacid compounds (1A to 12A, TLK117, TLK137), GSH and CDNB at 2×Km, pH 6.5) of the same compound?
**A.** Its IC50 is 0.052 µM.

**Q.** With `CCOC(=O)[C@@H](N)CCC(=O)N[C@@H](CSCc1ccccc1)C(=O)N[C@@H](C(=O)OCC)c1ccccc1` [TLK199] as the compound, how does the Hematologic improvement [5] read?
**A.** Its Hematologic improvement is “multilineage hematologic improvement”.

**Q.** And the Tolerability [5]?
**A.** Its Tolerability is “well tolerated”.

**Q.** And the “Enhancement of differentiation of HL-60 cells” value [6]?
**A.** The value was “enhances differentiation”.

**Q.** What about the “Colony formation of hematopoietic progenitor cells” value [7] of the same compound?
**A.** The value was “stimulate colony formation of all three lineages”.

**Q.** What about the “Potentiation of the activity of cytotoxic agents” value [8] of the same compound?
**A.** Its value is “potentiate the activity of cytotoxic agents”.

**Q.** And the “Differentiation of HL-60 promyelocytic leukemia cells in vitro” value [9]?
**A.** Its value is “induce the differentiation”.

**Q.** And the “White blood cell production” value [10]?
**A.** Its value is “increase white blood cell production”.

**Q.** For `N[C@@H](CCC(=O)N[C@@H](CSCc1ccccc1)C(=O)N[C@@H](C(=O)O)c1ccccc1)C(=O)O` [TLK117, L-γ-glutamyl-S-(phenylmethyl)-L-cysteinyl-D-phenylglycine] (γGlu-Cys(Bn)-[dPhg]-OH), which inhibition at 20 µM [11] is on record?
**A.** The inhibition at 20 µM was 90%.

**Q.** And the IC50 [1]?
**A.** Its IC50 is 70 µM.

**Q.** And the IC50 [3]?
**A.** The IC50 was 17 µM.

**Q.** And the IC50 [12]?
**A.** The IC50 was ~0.4 µM.

**Q.** What about the IC50 [4] of the same compound?
**A.** The IC50 was 0.409 µM.
